{
  "source": "patent US11685904B2",
  "about": "(priority 2019, dated 2023)",
  "key": {"[1]": {"system": "vaccinia virus expressing the TK.007 HSV-TK variant (IGV-077)", "parameters": "species or system mice", "settings": "mouse, in vivo"}, "[2]": {"system": "vaccinia virus expressing the TK.007 HSV-TK variant (IGV-035)", "parameters": "species or system BALB/c mice", "settings": "mouse, in vivo"}},
  "note": "“Also recorded” adds a separate entry of the source.",
  "data": [
    {"smiles": "Nc1nc(O)c2ncn(COC(CO)CO)c2n1", "note": "[ganciclovir]", "values": [
      {"measurement": "virus replication in tumors (plaque assay)", "setting": "[1]", "result": "significantly reduced; also recorded: completely inhibited"},
      {"measurement": "virus-mediated GFP expression in tumors (immunohistochemistry)", "setting": "[1]", "result": "Low levels; also recorded: no virus-mediated GFP expression was detected"},
      {"measurement": "average lesion size compared to the vehicle (no vaccinia virus) group", "setting": "[2]", "result": "comparable to the group treated with vehicle"},
      {"measurement": "healing of topical lesions caused by vaccinia virus", "setting": "[2]", "result": "healed faster"},
      {"measurement": "lesion size compared to the non-treated group", "setting": "[2]", "result": "significantly smaller"},
      {"measurement": "virus shedding from the tail scarification site", "setting": "[2]", "result": "reduced virus shedding"}
    ]}
  ]
}
